# According to PubChem BioAssay AID2060500 (Molecular Pharmacology Branch, DTP, NCI, 2025):
# Several values for one entry are separate records, joined by “and”; a condition that tells them apart may be missing. Equal entries are not always repeated.
# Test system: 596521-263-R-J1-PDC complex spheroids, viability % of control
# Experiment: Anticancer human tumor 596521-263-R-J1-PDC patient-derived soft tissue sarcoma cell line growth inhibition [GQUAD]
# Details: for viability, T/C: stronger effect = lower value
# Description: DNA G-quadruplex Stabilizer Agents in Combinations in Complex Spheroids
# A high-throughput screen of multi-cell type tumor spheroids was designed to identify active combinations of DNA G-quadruplex stabilizer agents and targeted small molecules. Complex spheroids include a stromal component modeled by human endothelial cells (HUVEC) and fibroblasts modeled by human mesenchymal stem cells (MSCs). The concentration ranges selected for each drug and investigational agent were based upon clinically achievable concentrations if the clinical Cmax of the agent was known.
# Compounds. The drugs and investigational agents: pidnarulex (CX-5461; NSC782164), APTO-253 (NSC789042), BRACO-19 (NSC847499), peposertib (NSC802822), ceralasertib (NSC780249), elimusertib (NSC800525), camonsertib (NSC841442), AZD-1390 (NSC803789), olaparib (NSC753686), talazoparib (NSC767125), ART-558 (NSC835418), sotorasib (NSC818433), MRTX-1133 (NSC836407), SN-38 (NSC673596), topotecan (NSC609699), etoposide (NSC141540), doxorubicin (NSC123127), gemcitabine (NSC613327), 5-fluorouracil (NSC19893), paclitaxel (NSC125973), vemurafenib (NSC761431), panobinostat (NSC761190), R-306465 (JNJ-16241199; NSC773264), adavosertib (NSC754352), TP-3654 (NSC805149), carboplatin (NSC241240), KSQ-4279 (NSC840948), and staurosporine (NSC755774) were obtained from the National Cancer Institute (NCI) Developmental Therapeutics Program Chemical Repository (34). The FDA-approved anticancer drug set is available from the NCI Developmental Therapeutics Program. […] The stock solutions were prepared in dimethyl sulfoxide (DMSO, Sigma-Aldrich, St. Louis, MO, cat. D2650) at 800-fold the tested concentration and stored at -70 degrees C prior to their use. All drugs and investigational agents were tested over a range starting from a high concentration at or near the clinical Cmax and decreasing in half-log increments. If the clinical Cmax for an agent had not been determined, the highest concentration tested was 10 microM.
# 2.3 Cell Culture. All cells were maintained in an incubator at 37 degrees C and 5% CO2 with 95% humidity. The PDC lines were cultured according to standard operating procedures established by the NCI PDMR. All PDCs were thawed and cultured in Matrigel-coated flasks prepared with a working solution of 1X Ham's F-12 nutrient mix, without supplementation (Invitrogen, cat. 11765054), 100 U/mL penicillin-streptomycin (Invitrogen, cat. 15140122), and 2.5% Matrigel (Corning Inc., cat. 354248) for the first three passages. The 857933-349-R-J2-PDC line was cultured in 6C/Colon 1B media, which includes advanced DMEM/F-12 (Thermo Fisher Scientific, cat. 12634028), 10 mM HEPES (Thermo Fisher Scientific, cat. 15630080), 1X GlutaMAX supplement (Thermo Fisher Scientific, cat. 35050061), 0.1 mg/mL primocin (InvivoGen, cat. ant-pm-2), 10% defined fetal bovine serum, heat inactivated (HyClone Laboratories Inc., cat. SH30070.03HI), 50% L-WRN conditioned media (ATCC, cat. CRL-3276), 1.25 mM N-Acetyl-L-cysteine (Sigma-Aldrich, cat. A9165), 10 mM nicotinamide (Sigma-Aldrich, cat. N0636), 1X B-27 supplement (Thermo Fisher Scientific, cat. 17504044), 1X N-2 supplement (Thermo Fisher Scientific, cat. 17502048), 10 microM Y-27632 dihydrochloride (Tocris Bioscience, cat. 1254), and 50 ng/mL human EGF recombinant protein (Thermo Fisher Scientific, cat. PHG0311). The 485176-168-R4-J1-PDC line was cultured in Panc media, which includes all 6C/Colon 1B media components plus 100 ng/mL human FGF-10 (Thermo Fisher Scientific, cat. 100-26), 500 nM SB-431542 (Selleckchem, cat. S1067), and gastrin (Tocris, cat. 3006).
# […]
# [1] = curve of first compound, second compound 0.0316 µM
# [2] = curve of first compound, second compound 0.1 µM
# [3] = curve of first compound, second compound 0.316 µM
# [4] = curve of first compound, second compound 1 µM
# [5] = curve of first compound, second compound 3.16 µM
# [6] = curve of first compound, second compound 10 µM
# [7] = second compound 0.0316 µM, first compound 0.0316 µM
# [8] = second compound 0.0316 µM, first compound 0.1 µM
# [9] = second compound 0.0316 µM, first compound 0.316 µM
# [10] = second compound 0.0316 µM, first compound 1 µM
# [11] = second compound 0.0316 µM, first compound 3.16 µM
# [12] = second compound 0.0316 µM, first compound 10 µM
# [13] = second compound 0.1 µM, first compound 0.0316 µM
# [14] = second compound 0.1 µM, first compound 0.1 µM
# [15] = second compound 0.1 µM, first compound 0.316 µM
# [16] = second compound 0.1 µM, first compound 1 µM
# [17] = second compound 0.1 µM, first compound 3.16 µM
# [18] = second compound 0.1 µM, first compound 10 µM
# [19] = second compound 0.316 µM, first compound 0.0316 µM
# [20] = second compound 0.316 µM, first compound 0.1 µM
# [21] = second compound 0.316 µM, first compound 0.316 µM
# [22] = second compound 0.316 µM, first compound 1 µM
# [23] = second compound 0.316 µM, first compound 3.16 µM
# [24] = second compound 0.316 µM, first compound 10 µM
# [25] = second compound 1 µM, first compound 0.0316 µM
# [26] = second compound 1 µM, first compound 0.1 µM
# [27] = second compound 1 µM, first compound 0.316 µM
# [28] = second compound 1 µM, first compound 1 µM
# [29] = second compound 1 µM, first compound 3.16 µM
# [30] = second compound 1 µM, first compound 10 µM
# [31] = second compound 3.16 µM, first compound 0.0316 µM
# [32] = second compound 3.16 µM, first compound 0.1 µM
# [33] = second compound 3.16 µM, first compound 0.316 µM
# [34] = second compound 3.16 µM, first compound 1 µM
# [35] = second compound 3.16 µM, first compound 3.16 µM
# [36] = second compound 3.16 µM, first compound 10 µM
# [37] = second compound 10 µM, first compound 0.0316 µM
# [38] = second compound 10 µM, first compound 0.1 µM
# [39] = second compound 10 µM, first compound 0.316 µM
# [40] = second compound 10 µM, first compound 1 µM
# [41] = second compound 10 µM, first compound 3.16 µM
# [42] = second compound 10 µM, first compound 10 µM
# 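Also: spheroids exposed to drugs for 7 days before viability reading.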
compound,measurement,setting,value
COc1cccc2c1C(=O)c1c(O)c3c(c(O)c1C2=O)CC(O)(C(=O)CO)CC3OC1CC(N)C(O)C(C)O1 (stereo not given) + Cc1cnc(CNC(=O)c2c(=O)c3ccc(N4CCCN(C)CC4)nc3n3c2sc2ccccc23)cn1,IC50,[1],750 nM
same,IC50,[2],784 nM
same,IC50,[3],795 nM
same,IC50,[4],511 nM
same,IC50,[5],338 nM
same,IC50,[6],< 31.6 nM
same,"viability, T/C",[7],98.3%
same,"viability, T/C",[8],71.2%
same,"viability, T/C",[9],66.6%
same,"viability, T/C",[10],52.3%
same,"viability, T/C",[11],26.5%
same,"viability, T/C",[12],4.29%
same,"viability, T/C",[13],87.2%
same,"viability, T/C",[14],73.8%
same,"viability, T/C",[15],57.1%
same,"viability, T/C",[16],51.1%
same,"viability, T/C",[17],31%
same,"viability, T/C",[18],4.25%
same,"viability, T/C",[19],78.7%
same,"viability, T/C",[20],70.4%
same,"viability, T/C",[21],55.5%
same,"viability, T/C",[22],51.4%
same,"viability, T/C",[23],29%
same,"viability, T/C",[24],3.29%
same,"viability, T/C",[25],69.6%
same,"viability, T/C",[26],53%
same,"viability, T/C",[27],50.7%
same,"viability, T/C",[28],47.2%
same,"viability, T/C",[29],30.7%
same,"viability, T/C",[30],2.51%
same,"viability, T/C",[31],50.7%
same,"viability, T/C",[32],49%
same,"viability, T/C",[33],52.7%
same,"viability, T/C",[34],45.2%
same,"viability, T/C",[35],23.8%
same,"viability, T/C",[36],0.29%
same,"viability, T/C",[37],46.8%
same,"viability, T/C",[38],49.5%
same,"viability, T/C",[39],46.4%
same,"viability, T/C",[40],44.3%
same,"viability, T/C",[41],11.4%
same,"viability, T/C",[42],0.27%
COc1cccc2c1C(=O)c1c(O)c3c(c(O)c1C2=O)CC(O)(C(=O)CO)CC3OC1CC(N)C(O)C(C)O1 (stereo not given),"viability, T/C",compound 0.0316 µM,93% and 105% and 97.4%
same,"viability, T/C",compound 0.1 µM,74.8% and 74.5% and 88.6%
same,"viability, T/C",compound 0.316 µM,63.1% and 58% and 65.8%
same,"viability, T/C",compound 1 µM,58.1% and 54.2% and 56.5%
same,"viability, T/C",compound 3.16 µM,29.4% and 28.7% and 29.6%
same,"viability, T/C",compound 10 µM,4.46% and 3.41% and 4.53%
same,IC50,curve of compound,1060 nM and 723 nM and 1130 nM
O=C(NO)c1cnc(N2CCN(S(=O)(=O)c3ccc4ccccc4c3)CC2)nc1,"viability, T/C",compound 0.0316 µM,39.6% and 75% and 74.9%
same,"viability, T/C",compound 0.1 µM,25.7% and 56.3% and 57.3%
same,"viability, T/C",compound 0.316 µM,26.8% and 8.85% and 14%
same,IC50,curve of compound,< 31.6 nM and 117 nM and 121 nM
COc1ccc([C@@H](O)c2cc(-c3ncnc4cc(N5CCOCC5)ccc34)c(F)cc2Cl)nn1 + Cc1cnc(CNC(=O)c2c(=O)c3ccc(N4CCCN(C)CC4)nc3n3c2sc2ccccc23)cn1,IC50,[1],8520 nM
same,IC50,[2],1510 nM
same,IC50,[3],1690 nM
same,IC50,[4],635 nM
same,IC50,[5],294 nM
same,IC50,[6],< 31.6 nM
same,"viability, T/C",[7],99.7%
same,"viability, T/C",[8],80.7%
same,"viability, T/C",[9],79.4%
same,"viability, T/C",[10],77.2%
same,"viability, T/C",[11],49.2%
same,"viability, T/C",[12],51.3%
same,"viability, T/C",[13],92.3%
same,"viability, T/C",[14],88.4%
same,"viability, T/C",[15],67.5%
same,"viability, T/C",[16],50.5%
same,"viability, T/C",[17],54.6%
same,"viability, T/C",[18],38.7%
same,"viability, T/C",[19],84%
same,"viability, T/C",[20],77.6%
same,"viability, T/C",[21],63.6%
same,"viability, T/C",[22],57.1%
same,"viability, T/C",[23],42.9%
same,"viability, T/C",[24],37.4%
same,"viability, T/C",[25],64.5%
same,"viability, T/C",[26],58.2%
same,"viability, T/C",[27],58.9%
same,"viability, T/C",[28],42.5%
same,"viability, T/C",[29],43%
same,"viability, T/C",[30],37.6%
same,"viability, T/C",[31],55.7%
same,"viability, T/C",[32],59.6%
same,"viability, T/C",[33],45.2%
same,"viability, T/C",[34],45.9%
same,"viability, T/C",[35],40.3%
same,"viability, T/C",[36],35.4%
same,"viability, T/C",[37],45.4%
same,"viability, T/C",[38],27.4%
same,"viability, T/C",[39],42%
same,"viability, T/C",[40],38.3%
same,"viability, T/C",[41],36.3%
same,"viability, T/C",[42],11%
